Type in all cases: cell-based, human
For data set [1], the system named is CMT1A organoids. The data set is described as follows: g-ratio of myelinated axons by transmission electron microscopy in CMT1A organoids. The note with it: Day 25, TEM.
Data set [2] deals with CMT1A organoids. The data set is described as follows: Myelin periodic line distance (myelin compaction) by transmission electron microscopy in CMT1A organoids.
Data set [3] concerns PI3K-Akt signaling pathway. In words: p-Akt/Akt protein level ratio normalized to β-actin in treated CMT1A iPSC-derived organoids. As to conditions: Day 25, normalized to β-actin.

For “shRNA-2: Short-hairpin RNA against human PMP22, region CDS (SEQ ID NO 10), Sigma Mission pLKO.1-library, lentivirally transduced (guide CCGGCCTGTTCTTCTGCCAACTCTTCTCGAGAAGAGTTGGCAGAAGAACAGGTTTTTG)”, in the data set with CMT1A organoids [1], the g-ratio of axons result was “significantly increased the g-ratio”. For the same substance, the “myelin periodic line distance (myelin compaction)” value with CMT1A organoids [2] (high concentration (75 μL) of shRNA lentivirus) is on record as “restored the myelin periodic line distance back to control levels”; with CMT1A organoids [2] (low concentration (25 μL) of shRNA lentivirus), “partially improved myelin compaction”. In data set [3], the p-Akt/Akt ratio entry is on record as “reduced p-Akt/Akt ratio could be reversed”.
